Laboratory results from PMC5430599, “Antiplasmodial dihetarylthioethers target the coenzyme A synthesis pathway in Plasmodium falciparum erythrocytic stages” (Malaria Journal, 2017).
≈ marks a conversion by molar mass, not a printed value. Like-named read-outs stand apart in the source and are kept apart here.

Assay: Aqueous thermodynamic solubility, miniaturized shake-flask method with HPLC
Format: physicochemical
Details: for solubility thermodynamic / solubility: aqueous phosphate buffer, 25 °C, pH 7.4, aqueous buffer, thermodynamic from solid
Method: The aqueous solubility was determined using a miniaturized shake-flask-method. In brief, the compound (0.25–1.0 mg) was incubated in a Whatman Mini-Uniprep vial with aqueous phosphate buffer, pH 7.4, (300 µL) in an incubation shaker (IKA® KS 3000 ic control, Staufen, Germany) at 25 °C, 400 rpm. Presence of undissolved compound was checked at 24 and 48 h. After 24, 48, or 72 h of shaking, the filter plunger was punched into the vial and the concentration in the supernatant was determined by HPLC (AUC method, isocratic HPLC, at specific λmax as indicated in the Additional file 2). For the calibration, at least three different dilutions of the compounds from DMSO stock solutions diluted with ACN were quantified. Preparation of buffer pH 7.4: to a solution of Na2HPO4∙2 H2O (290 mg), K2HPO4 (20 mg) and NaCl (808 mg) in water (ad 100.0 mL), 12% aqueous HCl was added dropwise until the pH reached 7.4. In the case of 3a the concentration in the supernatant was below the limit of quantification. […] Further details of the solubility testing methods are described in Additional file 2, including calibration concentration ranges, composition of chromatographic eluents, and wavelength for measurement of absorbance.
Two stock solutions of each compound with a concentration of 10 mM (except for 8g: 1 mM) were prepared. Three dilutions with ACN were prepared (concentration range: 3d: 100 µM – […]
8g: 10 µM – 0.3 µM; 8k: 100 µM – 10 µM) from the stock solutions of the test compounds and measured as duplicates by HPLC (isocratic elution: solvent indicated in Additional file 2, Table, injection volume: indicated in Additional file 2, Table, flow rate: 1.000 mL/min, column temperature: 40 °C, time of detection: 8 min, detection by DAD at specific λmax as indicated in Additional file 2, Table). The area under the curve (% AUC) of the substance peak was determined and together with the respective concentration a linear calibration graph was created with Microsoft Excel (2010, Microsoft Corporation) for every compound.
Additional file 2, Table Af1: Solvents for isocratic elution, injection volumes and specific λmax […]
ID solvent injection volume [µL] λmax [nm]
Sample preparation and measurement of compound solubility
Samples of test compounds (0.25‐1.0 mg) were placed in Whatman‐Uni‐Prep® vials and aqueous phosphate buffer, pH 7.4 (300 µL, composition is indicated in Additional file 2, Table Af1) was added. The presence of undissolved compound was a requirement to determine the thermodynamic solubility. The vials were capped with the appropriate filter, […]
Additionally the vials were sealed with Parafilm M (Bemis Flexible Packaging, Neenah, WI, USA). The samples were incubated in an incubation shaker (IKA® KS 3000 ic control, Staufen, Germany) at 400 rpm and 25 °C for […]
24‐72 h. The presence of undissolved compound was checked at 24 and 48 h. Measurement of the samples was performed after 24 h, 48 h and 72 h; he filter plunger was punched into the vial and the concentration in the supernatant was determined by HPLC using the same methods as for the calibration solutions (Additional file 2, Table). All samples were measured in triplicate. By determination of the area under the curve (% AUC) of the substance and the specific linear calibration graph, the concentration of every compound in aqueous buffer solution was calculated. By comparison of the samples after 24 h and 48 h it was checked if equilibrium had been achieved after 24 h; if not, the samples were compared after 48 h and 72 h to check if equilibrium had been achieved after 48 h. In the case of 3a the concentration in the supernatant was below the limit of quantification. Therefore the lowest […]
Additional file 2, Table Af1: Composition of phosphate buffer pH 7.4 for determination of aqueous solubility. Modified according to Ph. Eur.8 […]
a Adjustment to pH 7.4 was carried out using a pH meter equipped with a glass electrode. […]
Lüddens, H., Synthesis of GABA A receptor agonists and evaluation of their α‐ […]

[1] = aqueous buffer pH 7.4, shake flask
[2] = thermodynamic solubility, aqueous buffer pH 7.4, 25 °C, equilibrium after 24 h (c) or 48 h (d) per footnote, read-out: S0, exp
[3] = thermodynamic solubility, aqueous buffer pH 7.4, 25 °C, equilibrium after 24 h (c) or 48 h (d) per footnote

| Compound | Log S0, exp [1] | solubility thermodynamic [2] | solubility (pH 7.4, shake flask) | aqueous solubility (pH 7.4, shake flask, listed as 8e (KuWei173)) | S0, exp [µM] [3] | solubility thermodynamic (aqueous buffer pH 7.4, shake flask, read-out: Log S0, exp (converted)) |
| --- | --- | --- | --- | --- | --- | --- |
| c1cnc2[nH]c(Sc3ncnc4sccc34)nc2c1 [Compound 8k] | −4.11 | 77 µM (≈ 22 µg/mL) |  |  |  |  |
| c1coc(-c2nnc(Sc3ncnc4sccc34)o2)c1 [Compound 3a] | <−6.00 | < 1 µM |  |  |  |  |
| Nc1nnc(Sc2ncnc3sccc23)s1 [Compound 8f] | −5.36 | 4.4 µM (≈ 1.18 µg/mL) |  |  |  |  |
| c1coc(Sc2ncnc3sccc23)n1 [Compound 8e] | −2.88 |  | 1330 µM (≈ 313 µg/mL) | > 1000 µM | 1.33 × 10^3 c µM |  |
| c1csc(Sc2ncnc3sccc23)n1 [Compound 8d] | −4.44 | 36.4 µM (≈ 9.15 µg/mL) |  |  |  |  |
| Cn1ccnc1Sc1ncnc2sccc12 [Compound 8c] |  |  | > 1000 µM |  | 1780 µM·days | 1780 µM (≈ 442 µg/mL) |
| c1ccc2[nH]c(Sc3ncnc4sccc34)nc2c1 [Compound 8g] | −6.37 |  |  |  |  |  |
